What was measured:
[1] = test system: POLCO; experiment: Pre-emergence herbicidal action against POLCO; assay type: in vivo, Polygonum convolvulus; conditions: dosage 80 g/ha
Outline: (§1)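 Greenhouse pots of sandy loam held seeds covered with soil, onto which the compound was applied before emergence. An aqueous suspension or emulsion of WP or EC was used at 600 to 800 l/ha with 0.2% wetting agent. Percent damage was judged visually at 3 weeks.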

[2] = test system: VERPE; experiment: Post-emergence herbicidal action against VERPE; assay type: in vivo, Veronica persica
Outline: (§2)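 A WP or EC formulation diluted in water with 0.2% wetting agent was sprayed at 600 to 800 l/ha onto one-leaf-stage plants grown in sandy loam. About 3 weeks later, action was rated visually in percent, 100% being dead plants.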

[3] = test system: POLCO; experiment: Post-emergence herbicidal action against POLCO; assay type: in vivo, Polygonum convolvulus; conditions: dosage 20 g/ha
Protocol: Seeds of monocotyledonous and dicotyledonous weed and crop plants are laid out in sandy loam soil in wood-fiber pots, covered with soil and cultivated in a greenhouse under good growth conditions. 2 to 3 weeks after sowing, the test plants are treated at the one-leaf stage. The compounds of the invention, formulated in the form of wettable powders (WP) or as emulsion concentrates (EC), are then sprayed onto the green parts of the plants in the form of an aqueous suspension or emulsion at a water application rate equivalent to 600 to 800 l/ha, with addition of 0.2% wetting agent. After the test plants have been left to stand in the greenhouse under optimal growth conditions for about 3 weeks, the action of the preparations is assessed visually in comparison to untreated controls (herbicidal action in percent (%): 100% activity=the plants have died, 0% activity=like control plants). […] The tables below illustrate, in an illustrative manner, the post-emergence herbicidal action of the compounds of the invention, the herbicidal activity being stated in percent.

[4] = test system: AMARE; experiment: Pre-emergence herbicidal action against AMARE; assay type: in vivo, Amaranthus retroflexus
Outline: as §1

[5] = test system: MATIN; experiment: Pre-emergence herbicidal action against MATIN; assay type: in vivo, Matricaria inodora
Outline: as §1

[6] = test system: ECHCG; experiment: Post-emergence herbicidal action against ECHCG; assay type: in vivo, Echinochloa crus-galli
Outline: as §2

[7] = test system: PHBPU; experiment: Post-emergence herbicidal action against PHBPU; assay type: in vivo, Pharbitis purpurea; conditions: dosage 20 g/ha
Outline: as §2

[8] = test system: ALOMY; experiment: Post-emergence herbicidal action against ALOMY; assay type: in vivo, Alopecurus myosuroides; conditions: dosage 20 g/ha, visual assessment about 3 weeks after treatment vs untreated controls
Outline: as §2

[9] = test system: VIOTR; experiment: Pre-emergence herbicidal action against VIOTR; assay type: in vivo, Viola tricolor
Outline: as §1

[10] = test system: PHBPU; experiment: Pre-emergence herbicidal action against PHBPU; assay type: in vivo, Pharbitis purpurea
Outline: as §1

[11] = test system: ALOMY; experiment: Pre-emergence herbicidal action against ALOMY; assay type: in vivo, Alopecurus myosuroides; conditions: pre-emergence
Outline: as §1

[12] = test system: ABUTH; experiment: Pre-emergence herbicidal action against ABUTH; assay type: in vivo, Abutilon theophrasti
Outline: as §1

[13] = test system: DIGSA; experiment: Pre-emergence herbicidal action against DIGSA; assay type: in vivo, Digitaria sanguinalis
Outline: as §1

[14] = test system: VIOTR; experiment: Post-emergence herbicidal action against VIOTR; assay type: in vivo, Viola tricolor
Outline: as §2

[15] = test system: AVEFA; experiment: Pre-emergence herbicidal action against AVEFA; assay type: in vivo, Avena fatua; conditions: 80 g/ha, pre-emergence
Outline: as §1

[16] = test system: VERPE; experiment: Pre-emergence herbicidal action against VERPE; assay type: in vivo, Veronica persica
Outline: as §1

[17] = test system: ECHCG; experiment: Pre-emergence herbicidal action against ECHCG; assay type: in vivo, Echinochloa crus-galli
Outline: as §1

[18] = test system: SETVI; experiment: Pre-emergence herbicidal action against SETVI; assay type: in vivo, Setaria viridis
Outline: as §1

[19] = test system: MATIN; experiment: Post-emergence herbicidal action against MATIN; assay type: in vivo, Matricaria inodora
Outline: as §2

[20] = test system: SETVI; experiment: Post-emergence herbicidal action against SETVI; assay type: in vivo, Setaria viridis; conditions: Setaria viridis, 504 h
Outline: as §2

[21] = test system: AMARE; experiment: Post-emergence herbicidal action against AMARE; assay type: in vivo, Amaranthus retroflexus; conditions: Amaranthus retroflexus, 504 h, 20 g/ha, visual assessment about 3 weeks after treatment, 100% = plants have died, 0% = like control plants
Outline: as §2

[22] = test system: DIGSA; experiment: Post-emergence herbicidal action against DIGSA; assay type: in vivo, Digitaria sanguinalis; conditions: Digitaria sanguinalis, 504 h
Outline: as §2

[23] = test system: ABUTH; experiment: Post-emergence herbicidal action against ABUTH; assay type: in vivo, Abutilon theophrasti; conditions: Abutilon theophrasti, 504 h, visual assessment about 3 weeks after treatment vs untreated controls
Outline: as §2

[24] = 80 g/ha, scored visually after 3 weeks vs untreated controls (100% = plants have died, 0% = like control plants)
[25] = Tripleurospermum inodorum, 504 h, dosage 20 g/ha

SMILES: CC(NC(=O)c1c(Br)ccc(C(=O)Nc2nnnn2C)c1Cl)C1CC1 (centres unmarked) [Example 1-183]
- Pre-emergence action against POLCO in % [1]: 80%
- Post-emergence action against VERPE in % ([2]; 5 g/ha): 80%
- Post-emergence action against VERPE in % ([2]; 20 g/ha): 90%
- Post-emergence action against POLCO in % [3]: 100%
- Pre-emergence action against AMARE in % ([4]; 20 g/ha, scored visually after 3 weeks vs untreated controls, 100% = plants have died, 0% = like control plants): 100%
- Pre-emergence action against AMARE in % [4, 24]: 100%
- Pre-emergence action against MATIN in % ([5]; dosage 20 g/ha): 90%
- Pre-emergence action against MATIN in % ([5]; dosage 80 g/ha): 100%
- Post-emergence action against ECHCG in % ([6]; dosage 20 g/ha): 100%
- Post-emergence action against PHBPU in % [7]: 80%
- Post-emergence action against ALOMY in % [8]: 90%
- Pre-emergence action against VIOTR in % ([9]; dosage 20 g/ha): 100%
- Pre-emergence action against VIOTR in % ([9]; dosage 80 g/ha): 100%
- Pre-emergence action against PHBPU in % ([10]; dosage 80 g/ha): 90%
- Pre-emergence action against ALOMY (herbicidal activity) [11, 24]: 90%
- Pre-emergence action against ABUTH (herbicidal activity) [12, 24]: 100%
- Pre-emergence action against ABUTH (herbicidal activity in percent) ([12]; dosage 20 g/ha, scored visually after 3 weeks vs untreated controls, 100% = plants have died, 0% = like control plants): 100%
- Pre-emergence action against DIGSA in % ([13]; dosage 20 g/ha): 100%
- Pre-emergence action against DIGSA in % ([13]; dosage 80 g/ha): 100%
- Post-emergence action against VIOTR in % ([14]; 5 g/ha): 90%
- Post-emergence action against VIOTR in % ([14]; 20 g/ha): 90%
- Pre-emergence action against AVEFA in % [15]: 90%
- Pre-emergence action against VERPE in % ([16]; dosage 20 g/ha): 90%
- Pre-emergence action against VERPE in % ([16]; dosage 80 g/ha): 100%
- Pre-emergence action against ECHCG in % ([17]; 20 g/ha): 90%
- Pre-emergence action against ECHCG in % ([17]; 80 g/ha): 100%
- Pre-emergence action against SETVI in % ([18]; dosage 80 g/ha): 100%
- Post-emergence action against MATIN in % ([19]; dosage 5 g/ha): 90%
- Post-emergence action against MATIN in % ([19]; dosage 20 g/ha): 90%

SMILES: CCNC(=O)c1c(C(F)(F)F)ccc(C(=O)Nc2nnnn2CC)c1C1CC1 [Example 2-287]
- pest or weed control at 80 g/ha ([1]; Fallopia convolvulus, 504 h): 80%
- pest or weed control at 5 g/ha ([2]; Veronica persica, 504 h, 5 g/ha): 80%
- pest or weed control at 20 g/ha ([2]; Veronica persica, 504 h, 20 g/ha): 100%
- pest or weed control at 20 g/ha ([3]; Fallopia convolvulus, 504 h): 100%
- pest or weed control at 20 g/ha ([4]; Amaranthus retroflexus, 504 h, 20 g/ha, scored visually after 3 weeks vs untreated controls, 100% = plants have died, 0% = like control plants): 100%
- pest or weed control at 80 g/ha ([4]; Amaranthus retroflexus, 504 h, 80 g/ha, scored visually after 3 weeks vs untreated controls, 100% = plants have died, 0% = like control plants): 100%
- pest or weed control at 20 g/ha [5, 25]: 100%
- pest or weed control at 80 g/ha ([5]; Tripleurospermum inodorum, 504 h, dosage 80 g/ha): 100%
- pest or weed control at 5 g/ha ([20]; dosage 5 g/ha): 80%
- pest or weed control at 20 g/ha ([20]; dosage 20 g/ha): 90%
- pest or weed control at 5 g/ha ([6]; Echinochloa crus-galli, 504 h, dosage 5 g/ha): 80%
- pest or weed control at 20 g/ha ([6]; Echinochloa crus-galli, 504 h, dosage 20 g/ha): 80%
- pest or weed control at 20 g/ha ([8]; Alopecurus myosuroides, 504 h): 90%
- pest or weed control at 20 g/ha ([9]; Viola tricolor, 504 h, dosage 20 g/ha): 100%
- pest or weed control at 80 g/ha ([9]; Viola tricolor, 504 h, dosage 80 g/ha): 100%
- pest or weed control at 20 g/ha ([10]; Ipomoea purpurea, 504 h, dosage 20 g/ha): 80%
- pest or weed control at 80 g/ha ([10]; Ipomoea purpurea, 504 h, dosage 80 g/ha): 80%
- pest or weed control at 80 g/ha ([11]; Alopecurus myosuroides, 504 h, 80 g/ha, scored visually after 3 weeks vs untreated controls (100% = plants have died, 0% = like control plants)): 90%
- pest or weed control at 20 g/ha ([11]; Alopecurus myosuroides, 504 h, 20 g/ha, scored visually after 3 weeks, 100% = plants have died, 0% = like control plants): 80%
- pest or weed control at 80 g/ha ([12]; Abutilon theophrasti, 504 h, 80 g/ha, scored visually after 3 weeks vs untreated controls (100% = plants have died, 0% = like control plants)): 100%
- pest or weed control at 20 g/ha ([12]; Abutilon theophrasti, 504 h, dosage 20 g/ha, scored visually after 3 weeks vs untreated controls, 100% = plants have died, 0% = like control plants, read-out: Pre-emergence action against ABUTH (herbicidal activity in percent)): 100%
- pest or weed control at 20 g/ha [21]: 100%
- pest or weed control at 20 g/ha ([13]; Digitaria sanguinalis, 504 h, dosage 20 g/ha): 100%
- pest or weed control at 80 g/ha ([13]; Digitaria sanguinalis, 504 h, dosage 80 g/ha): 100%
- pest or weed control at 5 g/ha ([14]; Viola tricolor, 504 h, 5 g/ha): 80%
- pest or weed control at 20 g/ha ([14]; Viola tricolor, 504 h, 20 g/ha): 90%
- pest or weed control at 80 g/ha ([15]; Avena fatua, 504 h): 80%
- pest or weed control at 20 g/ha ([16]; Veronica persica, 504 h, dosage 20 g/ha): 90%
- pest or weed control at 80 g/ha ([16]; Veronica persica, 504 h, dosage 80 g/ha): 100%
- pest or weed control at 20 g/ha ([17]; Echinochloa crus-galli, 504 h, 20 g/ha): 90%
- pest or weed control at 80 g/ha ([17]; Echinochloa crus-galli, 504 h, 80 g/ha): 100%
- pest or weed control at 20 g/ha ([18]; Setaria viridis, 504 h, dosage 20 g/ha): 90%
- pest or weed control at 80 g/ha ([18]; Setaria viridis, 504 h, dosage 80 g/ha): 100%
- pest or weed control at 5 g/ha ([22]; 5 g/ha): 90%
- pest or weed control at 20 g/ha ([22]; 20 g/ha): 90%
- pest or weed control at 5 g/ha ([23]; dosage 5 g/ha): 80%
- pest or weed control at 20 g/ha ([23]; dosage 20 g/ha): 80%
- pest or weed control at 5 g/ha ([19]; Tripleurospermum inodorum, 504 h, dosage 5 g/ha): 90%
- pest or weed control at 20 g/ha [19, 25]: 90%
